Experimental data as given in patent US20240041042A1, “1-(PYRIDYL)-5-AZINYLPYRAZOLE DERIVATIVES, AND THEIR USE FOR CONTROL OF UNDESIRED PLANT GROWTH” (Bayer Aktiengesellschaft, priority 2020, published 2024).

Key:
Format in all cases: in vivo
[1] = system: Abutilon theophrasti (ABUTH); assay: Pre-emergence herbicidal action against ABUTH; conditions: 100% = plants have died
How it was run: (§1)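 Seeds sown in pots and covered with soil; WP or EC formulations sprayed onto the soil surface at 600 l/ha water with 0.5% additive, at 320 g/ha or lower. Greenhouse growth for about 3 weeks, then visual scoring as % effect against untreated controls (100% = plants dead).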

[2] = system: Alopecurus myosuroides (ALOMY); assay: Pre-emergence herbicidal action against ALOMY; conditions: scored visually after about 3 weeks, 100% = plants have died
How it was run: as §1

[3] = system: Amaranthus retroflexus (AMARE); assay: Pre-emergence herbicidal action against AMARE; conditions: visual scoring after about 3 weeks vs untreated controls
How it was run: as §1

[4] = system: Avena fatua (AVEFA); assay: Pre-emergence herbicidal action against AVEFA; conditions: visual scoring after about 3 weeks vs untreated controls
How it was run: as §1

[5] = system: Verconica persica (VERPE); assay: Pre-emergence herbicidal action against VERPE
How it was run: as §1

[6] = system: Alopecurus myosuroides (ALOMY); assay: Post-emergence herbicidal action against ALOMY; conditions: visual rating about 3 weeks after treatment vs untreated controls (100% = plants have died, 0% = like control plants)
How it was run: (§2)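 Greenhouse plants sprayed at the one-leaf stage, 2–3 weeks after sowing, with WP or EC formulations plus 0.5% additive at 600 l/ha water. Activity rated visually after about 3 weeks versus untreated controls (100% = dead, 0% = like control), at 320 g/ha or lower.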

[7] = system: Amaranthus retroflexus (AMARE); assay: Post-emergence herbicidal action against AMARE
How it was run: as §2

[8] = system: Echinochloa crus-galli (ECHCG); assay: Post-emergence herbicidal action against ECHCG
How it was run: as §2

[9] = system: Lolium rigidum (LOLRI); assay: Post-emergence herbicidal action against LOLRI
How it was run: as §2

[10] = system: Matricaria inodora (MATIN); assay: Post-emergence herbicidal action against MATIN
How it was run: as §2

[11] = Dosage column 320 g/ha (title prints 3200 g/ha), scored visually after about 3 weeks
[12] = 320 g/ha, visual rating about 3 weeks after treatment
[13] = 80 g/ha, scored visually after about 3 weeks vs untreated controls, 0% = like control plants
[14] = 80 g/ha, visual rating about 3 weeks after treatment vs untreated controls (100% = plants have died, 0% = like control plants)

| SMILES | Pre-emergence action against ABUTH [1, 11] [%] | Pre-emergence action against ALOMY ([2]; 80 g/ha) [%] | Pre-emergence action against ALOMY ([2]; 320 g/ha) [%] | Pre-emergence action against AMARE in % ([3]; 80 g/ha) [%] | Pre-emergence action against AMARE in % ([3]; 320 g/ha) [%] | Pre-emergence action against AVEFA in % ([4]; 80 g/ha) [%] | Pre-emergence action against AVEFA in % ([4]; 320 g/ha) [%] | Pre-emergence action against VERPE in % ([5]; dosage 80 g/ha) [%] | Pre-emergence action against VERPE in % ([5]; dosage 320 g/ha) [%] | Post-emergence action against ALOMY in % ([6]; 80 g/ha) [%] | Post-emergence action against ALOMY in % ([6]; 320 g/ha) [%] | Post-emergence action against AMARE in % [7, 12] [%] | Post-emergence action against ECHCG in % ([8]; dosage 80 g/ha) [%] | Post-emergence action against ECHCG in % ([8]; dosage 320 g/ha) [%] | Post-emergence action against LOLRI in % ([9]; dosage 80 g/ha) [%] | Post-emergence action against LOLRI in % ([9]; dosage 320 g/ha) [%] | Post-emergence action against MATIN in % ([10]; dosage 320 g/ha) [%] | Pre-emergence action against ABUTH [1, 13] [%] | Post-emergence action against AMARE in % [7, 14] [%] | Post-emergence action against MATIN in % ([10]; dosage 80 g/ha) [%] |
| --- | --- | --- | --- | --- | --- | --- | --- | --- | --- | --- | --- | --- | --- | --- | --- | --- | --- | --- | --- | --- |
| C[C@@H](Oc1nn(-c2nc(F)ccc2F)c(-c2cncc(F)c2)c1C1CC1)C(=O)O [Example I-180] | 80 | 90 | 100 | 100 | 100 | 90 | 90 | 100 | 100 | 90 | 90 | 90 | 80 | 90 | 90 | 90 | 90 | – | – | – |
| CCOC(=O)[C@@H](C)Oc1nn(-c2ccccn2)c(-c2cncc(F)c2)c1Cl [Example I-184] | 90 | 90 | 100 | 100 | 100 | 80 | 90 | 90 | 100 | 80 | 90 | 80 | 90 | 90 | 90 | 90 | 80 | 90 | 80 | – |
| COC(=O)[C@H](C)COC(=O)COc1nn(-c2ccccn2)c(-c2cncc(F)c2)c1Cl [Example I-192] | 80 | 90 | 90 | 80 | 100 | – | 90 | – | 90 | 90 | 90 | 80 | 90 | 90 | – | 80 | 80 | – | 80 | – |
| COC(=O)[C@@H](C)Oc1nn(-c2nc(F)ccc2F)c(-c2cncc(F)c2)c1C1CC1 [Example I-171] | 90 | 100 | 100 | 100 | 100 | 90 | 100 | 100 | 100 | 90 | 90 | 80 | 80 | 80 | 80 | 90 | 90 | – | 80 | 80 |
| COC(=O)C(C)NC(=O)[C@@H](C)Oc1nn(-c2ccccn2)c(-c2cncc(F)c2)c1Br (some centres unmarked) [Example I-190] | 80 | 80 | 90 | 90 | 100 | – | 90 | 80 | 100 | 80 | 100 | 80 | 80 | 80 | 90 | 90 | 80 | – | – | – |
| COC(=O)[C@@H](C)Oc1nn(-c2ncccc2F)c(-c2ccc(F)nc2)c1Br [Example I-05, Methyl (2R)-2-{[4-bromo-1-(3-fluoropyridin-2-yl)-5-(6-fluoropyridin-3-yl)-1H-pyrazol-3-yl]oxy}propanoate] | 80 | 90 | 100 | 90 | 100 | – | 90 | 100 | 100 | 90 | 100 | 90 | – | 90 | – | 90 | 100 | – | 90 | – |
| CCOC(=O)[C@@H](C)Oc1nn(-c2nc(F)ccc2F)c(-c2cncc(F)c2)c1Cl [Example I-208] | 90 | 90 | 100 | 90 | 100 | 80 | 90 | 90 | 100 | – | 80 | 80 | 80 | 90 | – | 80 | 80 | 80 | – | 80 |
| O=C(O)COc1nn(-c2ncccc2F)c(-c2ccc(F)nc2)c1Br [Example I-08] | 80 | 100 | 100 | 100 | 100 | 80 | 90 | – | 100 | 100 | 100 | 90 | 80 | 90 | – | 90 | 90 | – | 80 | 90 |
| COC(=O)CCOC(=O)[C@@H](C)Oc1nn(-c2ccccn2)c(-c2cncc(F)c2)c1Cl [Example I-196] | 90 | – | 90 | 100 | 100 | 80 | 90 | 90 | 100 | 80 | 90 | 80 | 80 | 80 | 90 | 90 | 80 | 80 | 80 | – |
| C[C@@H](Oc1nn(-c2ncccc2F)c(-c2ccc(F)nc2)c1I)C(=O)O [Example I-343] | 100 | 90 | 90 | 100 | 100 | 80 | 90 | – | 100 | 90 | 100 | 80 | 90 | 90 | – | 90 | 80 | 80 | 80 | – |
